# Assay results published in patent US5530126A, “Process for the preparation of substituted 6-(pyrazol-3yl)-1,4-benzoxazin-3-ones” (Monsanto Company, priority 1994, dated 1996).
# Experiments:
# Format in all cases: in vivo
# Indian Mustard [1] = assay: Post-emergence herbicide test; conditions: Brassica juncea, read-out: % plant inhibition (Inmu); for inhibition at 11210 g/ha: 11.21 kg/ha; for inhibition at 1120 g/ha: 1.12 kg/ha
# Outline: (§1)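 Foliar spray trial in greenhouse pans: two- to three-week-old plants treated at 200 gallons/acre by atomizer, spray containing about 0.4% emulsifier. Percent inhibition compared with untreated controls was recorded around day 11.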
# Downy Brome [2] = assay: Post-emergence herbicide test; conditions: Bromus tectorum, read-out: % plant inhibition (Dobr); for inhibition at 11210 g/ha: 11.21 kg/ha; for inhibition at 1120 g/ha: 1.12 kg/ha
# Outline: as §1
# Wild buckwheat [3] = assay: Post-emergence herbicide test; conditions: Fallopia convolvulus, read-out: % plant inhibition (Wibw); for inhibition at 11210 g/ha: 11.21 kg/ha; for inhibition at 1120 g/ha: 1.12 kg/ha
# Outline: as §1
# Yellow nutsedge [4] = assay: Post-emergence herbicide test; conditions: Cyperus, read-out: % plant inhibition (Yens); for inhibition at 11210 g/ha: 11.21 kg/ha; for inhibition at 1120 g/ha: 1.12 kg/ha
# Outline: as §1
# Barnyardgrass [5] = assay: Post-emergence herbicide test; conditions: Echinochloa crus-galli, read-out: % plant inhibition (Bygr); for inhibition at 11210 g/ha: 11.21 kg/ha; for inhibition at 1120 g/ha: 1.12 kg/ha
# Outline: as §1
# Morningglory [6] = assay: Post-emergence herbicide test; conditions: Ipomoea, read-out: % plant inhibition (Mogl); for inhibition at 11210 g/ha: 11.21 kg/ha; for inhibition at 1120 g/ha: 1.12 kg/ha
# Outline: as §1
# Seedling johnsongrass [7] = assay: Post-emergence herbicide test; conditions: Sorghum halepense, read-out: % plant inhibition (Sejg); for inhibition at 11210 g/ha: 11.21 kg/ha; for inhibition at 1120 g/ha: 1.12 kg/ha
# Outline: as §1
# Cocklebur [8] = assay: Post-emergence herbicide test; conditions: Xanthium strumarium, read-out: % plant inhibition (Cobu); for inhibition at 11210 g/ha: 11.21 kg/ha; for inhibition at 1120 g/ha: 1.12 kg/ha
# Outline: as §1
# Velvetleaf [9] = assay: Post-emergence herbicide test; conditions: Abutilon theophrasti, read-out: % plant inhibition (Vele); for inhibition at 11210 g/ha: 11.21 kg/ha; for inhibition at 1120 g/ha: 1.12 kg/ha
# Outline: as §1
# Annual bluegrass [10] = assay: Post-emergence herbicide test; conditions: read-out: % plant inhibition (Anbg); for inhibition at 11210 g/ha: 11.21 kg/ha; for inhibition at 1120 g/ha: 1.12 kg/ha
# Outline: as §1
# Indian Mustard [11] = assay: Pre-emergence herbicide test; conditions: Brassica juncea, read-out: % plant inhibition (Inmu); for inhibition at 11210 g/ha: 11.21 kg/ha; for inhibition at 1120 g/ha: 1.12 kg/ha
# Outline: (§2)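 Seeds or perennial propagules sown on compacted topsoil in pans; known amount of active ingredient in organic solvent (e.g., acetone) or water applied directly to seed bed, then covered with untreated topsoil. Greenhouse, bottom-watered; % inhibition scored about 10-14 days (usually 11 days) after seeding.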
# Downy Brome [12] = assay: Pre-emergence herbicide test; conditions: Bromus tectorum, read-out: % plant inhibition (Dobr); for inhibition at 11210 g/ha: 11.21 kg/ha; for inhibition at 1120 g/ha: 1.12 kg/ha
# Outline: as §2
# Wild buckwheat [13] = assay: Pre-emergence herbicide test; conditions: Fallopia convolvulus, read-out: % plant inhibition (Wibw); for inhibition at 11210 g/ha: 11.21 kg/ha; for inhibition at 1120 g/ha: 1.12 kg/ha
# Outline: as §2
# Yellow nutsedge [14] = assay: Pre-emergence herbicide test; conditions: Cyperus, read-out: % plant inhibition (Yens); for inhibition at 11210 g/ha: 11.21 kg/ha; for inhibition at 1120 g/ha: 1.12 kg/ha
# Outline: as §2
# Barnyardgrass [15] = assay: Pre-emergence herbicide test; conditions: Echinochloa crus-galli, read-out: % plant inhibition (Bygr); for inhibition at 11210 g/ha: 11.21 kg/ha; for inhibition at 1120 g/ha: 1.12 kg/ha
# Outline: as §2
# Morningglory [16] = assay: Pre-emergence herbicide test; conditions: Ipomoea, read-out: % plant inhibition (Mogl); for inhibition at 11210 g/ha: 11.21 kg/ha; for inhibition at 1120 g/ha: 1.12 kg/ha
# Outline: as §2
# Seedling johnsongrass [17] = assay: Pre-emergence herbicide test; conditions: Sorghum halepense, read-out: % plant inhibition (Sejg); for inhibition at 11210 g/ha: 11.21 kg/ha; for inhibition at 1120 g/ha: 1.12 kg/ha
# Outline: as §2
# Cocklebur [18] = assay: Pre-emergence herbicide test; conditions: Xanthium strumarium, read-out: % plant inhibition (Cobu); for inhibition at 11210 g/ha: 11.21 kg/ha; for inhibition at 1120 g/ha: 1.12 kg/ha
# Outline: as §2
# Velvetleaf [19] = assay: Pre-emergence herbicide test; conditions: Abutilon theophrasti, read-out: % plant inhibition (Vele); for inhibition at 11210 g/ha: 11.21 kg/ha; for inhibition at 1120 g/ha: 1.12 kg/ha
# Outline: as §2
# Annual bluegrass [20] = assay: Pre-emergence herbicide test; conditions: read-out: % plant inhibition (Anbg); for inhibition at 11210 g/ha: 11.21 kg/ha; for inhibition at 1120 g/ha: 1.12 kg/ha
# Outline: as §2
SMILES,inhibition at 1120 g/ha (Indian Mustard [1]),inhibition at 1120 g/ha (Downy Brome [2]),inhibition at 1120 g/ha (Wild buckwheat [3]),inhibition at 1120 g/ha (Yellow nutsedge [4]),inhibition at 1120 g/ha (Barnyardgrass [5]),inhibition at 1120 g/ha (Morningglory [6]),inhibition at 1120 g/ha (Seedling johnsongrass [7]),inhibition at 1120 g/ha (Cocklebur [8]),inhibition at 1120 g/ha (Velvetleaf [9]),inhibition at 1120 g/ha (Annual bluegrass [10]),inhibition at 1120 g/ha (Indian Mustard [11]),inhibition at 1120 g/ha (Downy Brome [12]),inhibition at 1120 g/ha (Wild buckwheat [13]),inhibition at 1120 g/ha (Yellow nutsedge [14]),inhibition at 1120 g/ha (Barnyardgrass [15]),inhibition at 1120 g/ha (Morningglory [16]),inhibition at 1120 g/ha (Seedling johnsongrass [17]),inhibition at 1120 g/ha (Cocklebur [18]),inhibition at 1120 g/ha (Velvetleaf [19]),inhibition at 1120 g/ha (Annual bluegrass [20]),also measured
Cn1nc(-c2cc(CC(=O)NCCCl)c(Cl)cc2F)c(Cl)c1C(F)(F)F [Compound 113],–,–,–,–,–,–,–,–,–,–,–,–,–,–,–,–,–,–,–,–,inhibition at 11210 g/ha (Indian Mustard [1]): 0%; inhibition at 11210 g/ha (Downy Brome [2]): 0%; inhibition at 11210 g/ha (Wild buckwheat [3]): 20%; inhibition at 11210 g/ha (Yellow nutsedge [4]): 0%; inhibition at 11210 g/ha (Barnyardgrass [5]): 0%; inhibition at 11210 g/ha (Morningglory [6]): 30%; inhibition at 11210 g/ha (Seedling johnsongrass [7]): 0%; inhibition at 11210 g/ha (Cocklebur [8]): 20%; inhibition at 11210 g/ha (Velvetleaf [9]): 50%; inhibition at 11210 g/ha (Annual bluegrass [10]): 0%; inhibition at 11210 g/ha (Indian Mustard [11]): 80%; inhibition at 11210 g/ha (Downy Brome [12]): 0%; inhibition at 11210 g/ha (Wild buckwheat [13]): 40%; inhibition at 11210 g/ha (Yellow nutsedge [14]): 0%; inhibition at 11210 g/ha (Barnyardgrass [15]): 80%; inhibition at 11210 g/ha (Morningglory [16]): 30%; inhibition at 11210 g/ha (Seedling johnsongrass [17]): 30%; inhibition at 11210 g/ha (Cocklebur [18]): 0%; inhibition at 11210 g/ha (Velvetleaf [19]): 80%; inhibition at 11210 g/ha (Annual bluegrass [20]): 10%
"COC(=O)C=Cc1cc(-c2nn(C)c(C(F)(F)F)c2Cl)c(F)cc1Cl [Compound 128, 3-(2-chloro-5-(4-chloro-1-methyl-5-(trifluoromethyl)-1H-pyrazol-3-yl)-4-fluorophenyl)propenoic acid, methyl ester]",90%,100%,100%,20%,50%,100%,100%,100%,100%,30%,70%,0%,100%,0%,0%,80%,30%,70%,100%,0%,–
CNC(=O)Cc1cc(-c2nn(C)c(C(F)(F)F)c2Cl)c(F)cc1Cl [Compound 114],–,–,–,–,–,–,–,–,–,–,–,–,–,–,–,–,–,–,–,–,inhibition at 11210 g/ha (Indian Mustard [1]): 10%; inhibition at 11210 g/ha (Downy Brome [2]): 0%; inhibition at 11210 g/ha (Wild buckwheat [3]): 60%; inhibition at 11210 g/ha (Yellow nutsedge [4]): 10%; inhibition at 11210 g/ha (Barnyardgrass [5]): 0%; inhibition at 11210 g/ha (Morningglory [6]): 50%; inhibition at 11210 g/ha (Seedling johnsongrass [7]): 0%; inhibition at 11210 g/ha (Cocklebur [8]): 20%; inhibition at 11210 g/ha (Velvetleaf [9]): 50%; inhibition at 11210 g/ha (Annual bluegrass [10]): 10%; inhibition at 11210 g/ha (Indian Mustard [11]): 100%; inhibition at 11210 g/ha (Downy Brome [12]): 60%; inhibition at 11210 g/ha (Wild buckwheat [13]): 100%; inhibition at 11210 g/ha (Yellow nutsedge [14]): 90%; inhibition at 11210 g/ha (Barnyardgrass [15]): 100%; inhibition at 11210 g/ha (Morningglory [16]): 100%; inhibition at 11210 g/ha (Seedling johnsongrass [17]): 90%; inhibition at 11210 g/ha (Cocklebur [18]): 70%; inhibition at 11210 g/ha (Velvetleaf [19]): 100%; inhibition at 11210 g/ha (Annual bluegrass [20]): 100%
"Cn1nc(-c2cc(C=NOCC(=O)O)c(Cl)cc2F)c(Cl)c1C(F)(F)F [Compound 130, ((((2-chloro-5-(4-chloro-1-methyl-5-(trifluoromethyl)-1H-pyrazol-3-yl)-4-fluorophenyl)methylene)amino)oxy)acetic acid]",40%,30%,100%,20%,40%,100%,70%,100%,100%,20%,100%,30%,90%,20%,30%,100%,70%,90%,100%,0%,–
Cn1nc(-c2cc(CCl)c(Cl)cc2F)c(Cl)c1C(F)(F)F [Compound 109],40%,0%,90%,10%,30%,60%,20%,40%,100%,40%,90%,20%,100%,0%,90%,70%,80%,30%,90%,20%,–
Cn1nc(C(F)(F)F)c(Cl)c1-c1ccc(Cl)cc1F [Compound 79],–,–,–,–,–,–,–,–,–,–,–,–,–,–,–,–,–,–,–,–,inhibition at 11210 g/ha (Indian Mustard [1]): 90%; inhibition at 11210 g/ha (Downy Brome [2]): 20%; inhibition at 11210 g/ha (Wild buckwheat [3]): 100%; inhibition at 11210 g/ha (Yellow nutsedge [4]): 10%; inhibition at 11210 g/ha (Barnyardgrass [5]): 20%; inhibition at 11210 g/ha (Morningglory [6]): 60%; inhibition at 11210 g/ha (Seedling johnsongrass [7]): 30%; inhibition at 11210 g/ha (Cocklebur [8]): 20%; inhibition at 11210 g/ha (Velvetleaf [9]): 100%; inhibition at 11210 g/ha (Annual bluegrass [10]): 60%; inhibition at 11210 g/ha (Indian Mustard [11]): 100%; inhibition at 11210 g/ha (Downy Brome [12]): 80%; inhibition at 11210 g/ha (Wild buckwheat [13]): 100%; inhibition at 11210 g/ha (Yellow nutsedge [14]): 20%; inhibition at 11210 g/ha (Barnyardgrass [15]): 80%; inhibition at 11210 g/ha (Morningglory [16]): 100%; inhibition at 11210 g/ha (Seedling johnsongrass [17]): 80%; inhibition at 11210 g/ha (Cocklebur [18]): 30%; inhibition at 11210 g/ha (Velvetleaf [19]): 100%; inhibition at 11210 g/ha (Annual bluegrass [20]): 90%
Cn1nc(-c2cc(C3SCCS3)c(Cl)cc2F)c(Cl)c1C(F)(F)F [Compound 101],100%,100%,100%,30%,100%,100%,70%,100%,100%,90%,100%,80%,90%,0%,40%,80%,80%,30%,100%,70%,–
